This note sets out measurements from patent US20250296971A1, “GASTRIC INHIBITORY PEPTIDE RECEPTOR LIGANDS” (priority 2021, published 2025).

*1 amine or outer side, *2 acyl side, *3 side chain or, on linkers, in order; H or OH if unused. Where a SMILES comes first, the peptide text is derived from it. Bridges are numbered along the chain shown (N, C = ends). [ ]: non-standard residue; d: D form. Trp(5-Cl) = N[C@@H](Cc1c[nH]c2ccc(Cl)cc12)C(=O)O; Phe(3,4-Cl2) = N[C@@H](Cc1ccc(Cl)c(Cl)c1)C(=O)O; Pyridine(2,6-diCH2) = c1cc(C[*:1])nc(C[*:2])c1; Phe(3-Cl) = N[C@@H](Cc1cccc(Cl)c1)C(=O)O; Phe(4-Cl) = N[C@@H](Cc1ccc(Cl)cc1)C(=O)O; mXylylene = c1cc(C[*:1])cc(C[*:2])c1; Hyp = O=C(O)[C@@H]1C[C@@H](O)CN1; pS = N[C@@H](COP(=O)(O)O)C(=O)O; Aic = NC1(C(=O)O)Cc2ccccc2C1; Suc = O=C(CCC(=O)[*:2])[*:1]; hCys = N[C@@H](CCS)C(=O)O; Ac5c = NC1(C(=O)O)CCCC1; Thp = NC1(C(=O)O)CCOCC1; Aib = CC(C)(N)C(=O)O

The assay deals with T1, GIPR (CHO-K1-hGIPR cells) (Homo sapiens, UniProt P48546).
T1 construct: host or cells: CHO-K1
T1 sequence (P48546 22-466): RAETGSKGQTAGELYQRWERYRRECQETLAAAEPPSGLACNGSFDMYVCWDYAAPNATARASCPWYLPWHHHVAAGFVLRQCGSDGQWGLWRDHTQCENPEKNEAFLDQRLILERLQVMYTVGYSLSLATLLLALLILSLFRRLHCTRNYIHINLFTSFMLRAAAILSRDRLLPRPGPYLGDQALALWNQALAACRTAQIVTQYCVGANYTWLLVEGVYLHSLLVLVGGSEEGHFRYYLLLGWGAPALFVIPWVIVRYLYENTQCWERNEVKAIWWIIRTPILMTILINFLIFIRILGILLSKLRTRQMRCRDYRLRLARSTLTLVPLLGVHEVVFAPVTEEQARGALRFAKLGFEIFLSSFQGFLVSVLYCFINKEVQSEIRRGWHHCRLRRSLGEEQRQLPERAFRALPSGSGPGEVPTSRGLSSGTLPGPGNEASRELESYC
Put plainly: FACS binding assay. To be noted: competition with 20 nM GIP-057, 4° C., 1 hour, read-out: pIC50 Category (converted). Put shortly:
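Steps: detach CHO-K1-hGIPR cells (Accutase); wash in PBS/1% FCS; adjust to 500.000 cells per mL; wash ice-cold; incubate APC-streptavidin 1 μg/mL, 30 min on ice; wash twice; acquire on flow cytometer; fit MFI-concentration data with a four-parameter logistic model.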
(In general: Flow cytometry measures light scatter and fluorescence of single cells or particles in a stream.)
On to `CC[C@H](C)[C@@H]1NC(=O)[C@H](CC(C)C)NC(=O)C(C)(C)NC(=O)[C@@H](NC(=O)[C@@H](CC(C)C)NC(=O)[C@H](CCC(=O)O)NC(=O)[C@@H]2CCCN2C(=O)[C@H](Cc2c[nH]c3ccc(Cl)cc23)NC(=O)[C@H](Cc2c[nH]c3ccccc23)NC(=O)CCC(=O)O)CSCc2cccc(c2)CSC[C@@H](C(N)=O)NC1=O` [GIP-198, HO-Succinyl-Trp-5Clw-Pro-Glu-leu-[Cys(3MeBn)-Aib-Leu-Ile-Cys]-NH2] (Suc-W[Trp(5-Cl)]PE[dL]C[Aib]LIC-NH2; linker 6-10 via mXylylene), for which the IC50 is less than 10 nM.

For `CC[C@H](C)[C@@H]1NC(=O)[C@H](CC(C)C)NC(=O)C2(CCOCC2)NC(=O)[C@@H](NC(=O)[C@@H](CC(C)C)NC(=O)[C@H](CCC(=O)O)NC(=O)[C@@H]2CCCN2C(=O)[C@H](Cc2c[nH]c3ccc(Cl)cc23)NC(=O)[C@H](Cc2c[nH]c3ccccc23)NC(=O)CCC(=O)O)CSCc2cccc(c2)CSC[C@@H](C(N)=O)NC1=O` [GIP-199] (Suc-W[Trp(5-Cl)]PE[dL]C[Thp]LIC-NH2; linker 6-10 via mXylylene), the IC50 is less than 10 nM.

As for `CC[C@H](C)[C@@H]1NC(=O)[C@H](CC(C)C)NC(=O)C2(CCOCC2)NC(=O)[C@@H](NC(=O)[C@@H](CC(C)C)NC(=O)[C@H](CCC(=O)O)NC(=O)[C@@H]2C[C@@H](O)CN2C(=O)[C@H](Cc2c[nH]c3ccc(Cl)cc23)NC(=O)[C@H](Cc2c[nH]c3ccccc23)NC(=O)[C@H](CC(=O)O)NC(C)=O)CCSCc2cccc(n2)CSC[C@@H](C(N)=O)NC1=O` [GIP-200, Ac-Asp-Trp-5Clw-Hyp-Glu-leu-[Hcy(2Lut)-Thp-Leu-Ile-Cys]-NH2] (Ac-DW[Trp(5-Cl)][Hyp]E[dL][hCys][Thp]LIC-NH2; linker 7-11 via Pyridine(2,6-diCH2)), the IC50 is less than 10 nM.

Take `CC[C@H](C)[C@@H]1NC(=O)[C@H](CC(C)C)NC(=O)C2(CCOCC2)NC(=O)[C@@H](NC(=O)[C@@H](CC(C)C)NC(=O)[C@H](CCC(=O)O)NC(=O)[C@@H]2C[C@@H](O)CN2C(=O)[C@H](Cc2c[nH]c3ccc(Cl)cc23)NC(=O)[C@H](Cc2c[nH]c3ccccc23)NC(=O)[C@H](CC(=O)O)NC(C)=O)CSCc2cccc(n2)CSCC[C@@H](C(N)=O)NC1=O` [GIP-201, Ac-Asp-Trp-5Clw-Hyp-Glu-leu-[Cys(2Lut)-Thp-Leu-Ile-Hcy]-NH2] (Ac-DW[Trp(5-Cl)][Hyp]E[dL]C[Thp]LI[hCys]-NH2; linker 7-11 via Pyridine(2,6-diCH2)): the IC50 was less than 10 nM.

`CC[C@H](C)[C@@H]1NC(=O)[C@H](CC(C)C)NC(=O)C2(CCOCC2)NC(=O)[C@@H](NC(=O)[C@@H](CC(C)C)NC(=O)[C@H](CCC(=O)O)NC(=O)[C@@H]2C[C@@H](O)CN2C(=O)[C@H](Cc2c[nH]c3ccc(Cl)cc23)NC(=O)[C@H](Cc2c[nH]c3ccccc23)NC(=O)[C@H](CC(=O)O)NC(C)=O)CCSCc2cccc(n2)CSCC[C@@H](C(N)=O)NC1=O` [GIP-202, Ac-Asp-Trp-5Clw-Hyp-Glu-leu-[Hcy(2Lut)-Thp-Leu-Ile-Hcy]-NH2] (Ac-DW[Trp(5-Cl)][Hyp]E[dL][hCys][Thp]LI[hCys]-NH2; linker 7-11 via Pyridine(2,6-diCH2)): the IC50 is less than 10 nM.

Consider `CC[C@H](C)[C@@H]1NC(=O)[C@H](CC(C)C)NC(=O)C2(CCCC2)NC(=O)[C@@H](NC(=O)[C@@H](CC(C)C)NC(=O)[C@H](CCC(=O)O)NC(=O)[C@@H]2C[C@@H](O)CN2C(=O)[C@H](Cc2c[nH]c3ccc(Cl)cc23)NC(=O)[C@H](Cc2c[nH]c3ccccc23)NC(=O)[C@H](CC(=O)O)NC(C)=O)CSCc2cccc(n2)CSC[C@@H](C(N)=O)NC1=O` [GIP-203, Ac-Asp-Trp-5Clw-Hyp-Glu-leu-[Cys(2Lut)-Eca-Leu-Ile-Cys]-NH2] (Ac-DW[Trp(5-Cl)][Hyp]E[dL]C[Ac5c]LIC-NH2; linker 7-11 via Pyridine(2,6-diCH2)), for which the IC50 is less than 10 nM.

As to `CC[C@H](C)[C@@H]1NC(=O)[C@H](CC(C)C)NC(=O)C2(CCOCC2)NC(=O)[C@@H](NC(=O)[C@@H](CC(C)C)NC(=O)[C@H](CCC(=O)O)NC(=O)[C@@H]2C[C@@H](O)CN2C(=O)[C@H](Cc2c[nH]c3ccc(Cl)cc23)NC(=O)[C@H](Cc2c[nH]c3ccccc23)NC(=O)[C@H](CCC(N)=O)NC(C)=O)CSCc2cccc(n2)CSC[C@@H](C(N)=O)NC1=O` [GIP-204, Ac-Gln-Trp-5Clw-Hyp-Glu-leu-[Cys(2Lut)-Thp-Leu-Ile-Cys]-NH2] (Ac-QW[Trp(5-Cl)][Hyp]E[dL]C[Thp]LIC-NH2; linker 7-11 via Pyridine(2,6-diCH2)), the IC50 was less than 10 nM.

Regarding `CC[C@H](C)[C@@H]1NC(=O)[C@H](CC(C)C)NC(=O)C2(CCOCC2)NC(=O)[C@@H](NC(=O)[C@@H](CC(C)C)NC(=O)[C@H](CC(N)=O)NC(=O)[C@@H]2C[C@@H](O)CN2C(=O)[C@H](Cc2c[nH]c3ccc(Cl)cc23)NC(=O)[C@H](Cc2c[nH]c3ccccc23)NC(=O)[C@H](CC(=O)O)NC(C)=O)CSCc2cccc(n2)CSC[C@@H](C(N)=O)NC1=O` [GIP-205, Ac-Asp-Trp-5Clw-Hyp-Asn-leu-[Cys(2Lut)-Thp-Leu-Ile-Cys]-NH2] (Ac-DW[Trp(5-Cl)][Hyp]N[dL]C[Thp]LIC-NH2; linker 7-11 via Pyridine(2,6-diCH2)), the IC50 is less than 10 nM.

As to `CC[C@H](C)[C@@H]1NC(=O)[C@H](CC(C)C)NC(=O)C2(Cc3ccccc3C2)NC(=O)[C@@H](NC(=O)[C@@H](CC(C)C)NC(=O)[C@H](CCC(=O)O)NC(=O)[C@@H]2C[C@@H](O)CN2C(=O)[C@H](Cc2c[nH]c3ccc(Cl)cc23)NC(=O)[C@H](Cc2c[nH]c3ccccc23)NC(=O)[C@H](CC(=O)O)NC(C)=O)CSCc2cccc(n2)CSC[C@@H](C(N)=O)NC1=O` [GIP-206, Ac-Asp-Trp-5Clw-Hyp-Glu-leu-[Cys(2Lut)-Aic-Leu-Ile-Cys]-NH2] (Ac-DW[Trp(5-Cl)][Hyp]E[dL]C[Aic]LIC-NH2; linker 7-11 via Pyridine(2,6-diCH2)), the IC50 is less than 10 nM.

Turning to `CC[C@H](C)[C@@H]1NC(=O)[C@H](CC(C)C)NC(=O)C2(CCOCC2)NC(=O)[C@@H](NC(=O)[C@@H](CC(C)C)NC(=O)[C@H](CCC(=O)O)NC(=O)[C@@H]2C[C@@H](O)CN2C(=O)[C@H](Cc2c[nH]c3ccc(Cl)cc23)NC(=O)[C@H](Cc2c[nH]c3ccccc23)NC(=O)[C@H](COP(=O)(O)O)NC(C)=O)CSCc2cccc(n2)CSC[C@@H](C(N)=O)NC1=O` [GIP-207, Ac-Pse-Trp-5Clw-Hyp-Glu-leu-[Cys(2Lut)-Thp-Leu-Ile-Cys]-NH2] (Ac-[pS]W[Trp(5-Cl)][Hyp]E[dL]C[Thp]LIC-NH2; linker 7-11 via Pyridine(2,6-diCH2)), the IC50 is less than 10 nM.

Turning to `CC[C@H](C)[C@@H]1NC(=O)[C@H](CC(C)C)NC(=O)C2(CCOCC2)NC(=O)[C@@H](NC(=O)[C@@H](CC(C)C)NC(=O)[C@H](COP(=O)(O)O)NC(=O)[C@@H]2C[C@@H](O)CN2C(=O)[C@H](Cc2c[nH]c3ccc(Cl)cc23)NC(=O)[C@H](Cc2c[nH]c3ccccc23)NC(=O)[C@H](CC(=O)O)NC(C)=O)CSCc2cccc(n2)CSC[C@@H](C(N)=O)NC1=O` [GIP-208, Ac-Asp-Trp-5Clw-Hyp-Pse-leu-[Cys(2Lut)-Thp-Leu-Ile-Cys]-NH2] (Ac-DW[Trp(5-Cl)][Hyp][pS][dL]C[Thp]LIC-NH2; linker 7-11 via Pyridine(2,6-diCH2)), the IC50 is less than 10 nM.

On to `CC[C@H](C)[C@@H]1NC(=O)[C@H](CC(C)C)NC(=O)C2(CCOCC2)NC(=O)[C@@H](NC(=O)[C@@H](CC(C)C)NC(=O)[C@H](CCC(=O)O)NC(=O)[C@@H]2C[C@@H](O)CN2C(=O)[C@H](Cc2c[nH]c3ccc(Cl)cc23)NC(=O)[C@H](Cc2cccc(Cl)c2)NC(=O)[C@H](CC(=O)O)NC(C)=O)CSCc2cccc(n2)CSC[C@@H](C(N)=O)NC1=O` [GIP-209, Ac-Asp-Mcf-5Clw-Hyp-Glu-leu-[Cys(2Lut)-Thp-Leu-Ile-Cys]-NH2] (Ac-D[Phe(3-Cl)][Trp(5-Cl)][Hyp]E[dL]C[Thp]LIC-NH2; linker 7-11 via Pyridine(2,6-diCH2)), for which the IC50 is less than 10 nM.

With `CC[C@H](C)[C@@H]1NC(=O)[C@H](CC(C)C)NC(=O)C2(CCOCC2)NC(=O)[C@@H](NC(=O)[C@@H](CC(C)C)NC(=O)[C@H](CCC(=O)O)NC(=O)[C@@H]2C[C@@H](O)CN2C(=O)[C@H](Cc2c[nH]c3ccc(Cl)cc23)NC(=O)[C@H](Cc2ccc(Cl)cc2)NC(=O)[C@H](CC(=O)O)NC(C)=O)CSCc2cccc(n2)CSC[C@@H](C(N)=O)NC1=O` [GIP-210, Ac-Asp-Pcf-5Clw-Hyp-Glu-leu-[Cys(2Lut)-Thp-Leu-Ile-Cys]-NH2] (Ac-D[Phe(4-Cl)][Trp(5-Cl)][Hyp]E[dL]C[Thp]LIC-NH2; linker 7-11 via Pyridine(2,6-diCH2)), the IC50 was less than 10 nM.

As to `CC[C@H](C)[C@@H]1NC(=O)[C@H](CC(C)C)NC(=O)C2(CCOCC2)NC(=O)[C@@H](NC(=O)[C@@H](CC(C)C)NC(=O)[C@H](CCC(=O)O)NC(=O)[C@@H]2C[C@@H](O)CN2C(=O)[C@H](Cc2c[nH]c3ccc(Cl)cc23)NC(=O)[C@H](Cc2ccc(Cl)c(Cl)c2)NC(=O)[C@H](CC(=O)O)NC(C)=O)CSCc2cccc(n2)CSC[C@@H](C(N)=O)NC1=O` [GIP-211, Ac-Asp-Eaa-5Clw-Hyp-Glu-leu-[Cys(2Lut)-Thp-Leu-Ile-Cys]-NH2] (Ac-D[Phe(3,4-Cl2)][Trp(5-Cl)][Hyp]E[dL]C[Thp]LIC-NH2; linker 7-11 via Pyridine(2,6-diCH2)), the IC50 was less than 10 nM.
